Usually LD50 stands for the dose at which mortality reaches 50%.

This data set can be described thus: antagonism to adrenaline-induced toxicity. As to conditions: mouse, in vivo, ip; adrenaline (tartrate) intraperitoneally, mice; mortality 36 hours; read-out: LD50 (fiducial limits for 95%) of adrenaline alone. Type of data set: in vivo, male albino Swiss mice. Here is the method:
The antagonism to adrenaline-induced toxicity was also investigated with the following results. Groups of ten male albino Swiss mice were injected with adrenaline (tartrate) intraperitoneally at progressive logarithmic doses. Other similar groups of animals were injected with 250 mg/kg of the compounds under examination via the same route, 30 minutes before adrenaline administration. Mortality was assessed by means of the Litchfield and Wilcoxon method 36 hours after adrenaline administration.

As for `CNCC(O)c1ccc(O)c(O)c1` (stereo not shown) [Adrenaline, reference compound], the 50% lethal dose (LD50) at 36 h came out at 27.7 mg/kg.

The record behind these values is US4194006A, “Therapeutic application of acetyl-d,l-carnitine and other acyl derivatives of d,l-carnitine” (priority 1977, dated 1980).
